Experimental data from paper PMC6345968, “Structural basis for species-selective targeting of Hsp90 in a pathogenic fungus” (Nature Communications, 2019).
Where two headings read alike, the source gives them in different places. Blank lines part the entries; values can stand above or below the compound they belong to.

How the values were obtained:
[1] = biological target: T1, Hsp90 in C. albicans (SC5314) lysate (Candida albicans, UniProt P46598); assay: biochemical; assay type: binding; details: for FP signal: raw
T1 construct: endogenous in cells; host or cells: C. albicans SC5314 whole-cell lysate
T1 sequence (P46598 whole entry): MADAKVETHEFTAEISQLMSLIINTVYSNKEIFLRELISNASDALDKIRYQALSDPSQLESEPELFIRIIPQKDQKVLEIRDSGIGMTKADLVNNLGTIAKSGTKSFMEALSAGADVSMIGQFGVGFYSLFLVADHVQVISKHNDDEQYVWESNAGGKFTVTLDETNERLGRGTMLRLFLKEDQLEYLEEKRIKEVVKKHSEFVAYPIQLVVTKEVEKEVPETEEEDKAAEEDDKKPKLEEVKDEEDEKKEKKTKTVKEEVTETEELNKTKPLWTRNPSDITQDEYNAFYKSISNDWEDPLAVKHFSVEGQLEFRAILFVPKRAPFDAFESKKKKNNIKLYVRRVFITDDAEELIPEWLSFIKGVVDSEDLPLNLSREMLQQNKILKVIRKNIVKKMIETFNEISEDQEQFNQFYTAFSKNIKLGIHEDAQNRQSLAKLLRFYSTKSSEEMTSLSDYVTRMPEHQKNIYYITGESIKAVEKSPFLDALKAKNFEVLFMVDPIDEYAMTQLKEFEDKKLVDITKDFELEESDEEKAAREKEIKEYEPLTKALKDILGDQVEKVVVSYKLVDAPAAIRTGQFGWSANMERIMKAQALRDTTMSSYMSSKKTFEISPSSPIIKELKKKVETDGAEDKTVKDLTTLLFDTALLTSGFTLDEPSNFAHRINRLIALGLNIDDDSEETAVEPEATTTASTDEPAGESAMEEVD

Hsp90 in HEPG2 lysate = details: for FP signal (raw) / FP signal: HepG2 lysate; for FP signal: raw; for EC50: Human lysate
[2] = SC5314 lysate, 0.457 nM compound
[3] = SC5314 lysate, 1.372 nM compound
[4] = SC5314 lysate, 4.115 nM compound
[5] = SC5314 lysate, […] nM compound
[6] = SC5314 lysate, 37.037 nM compound
[7] = SC5314 lysate, 111.111 nM compound
[8] = SC5314 lysate, 333.333 nM compound
[9] = SC5314 lysate, 1000 nM compound
[10] = SC5314 lysate, 3000 nM compound

Ratio re. GdA ([1]; EC50 relative to GdA, SC5314 lysate): 79.2475
FP signal (raw) ([1]; SC5314 lysate, 0.457 nM): 204
FP signal relative to 0 nM [1, 2]: 1.02
FP signal [1, 2]: 204
FP signal (raw) ([1]; SC5314 lysate, 1.372 nM): 206
FP signal relative to 0 nM [1, 3]: 1.03
FP signal [1, 3]: 206
FP signal (raw) ([1]; SC5314 lysate, 4.115 nM): 205
FP signal relative to 0 nM [1, 4]: 1.025
FP signal [1, 4]: 205
FP signal (raw) ([1]; SC5314 lysate, […] nM): 200
FP signal relative to 0 nM [1, 5]: 1
FP signal [1, 5]: 200
FP signal (raw) ([1]; SC5314 lysate, 37.037 nM): 198
FP signal relative to 0 nM [1, 6]: 0.99
FP signal [1, 6]: 198
FP signal (raw) ([1]; SC5314 lysate, 111.111 nM): 193
FP signal relative to 0 nM [1, 7]: 0.965
FP signal [1, 7]: 193
FP signal (raw) ([1]; SC5314 lysate, 333.333 nM): 171
FP signal relative to 0 nM [1, 8]: 0.855
FP signal [1, 8]: 171
FP signal (raw) ([1]; SC5314 lysate, 1000 nM): 116
FP signal relative to 0 nM [1, 9]: 0.58
FP signal [1, 9]: 116
FP signal (raw) ([1]; SC5314 lysate, 3000 nM): 52
FP signal relative to 0 nM [1, 10]: 0.26
FP signal [1, 10]: 52
HepG2/SC5314 ([1]; ratio of GdA-normalized EC50s, human over fungal lysate): 1.707
HepG2/SC5314 ([1]; ratio of GdA-relative EC50 ratios, HepG2 over SC5314): 1.707
Compound: COc1ccc(CON=C2C=CC=CC3OC3CC(C)OC(=O)c3c(O)cc(O)c(Cl)c3C2)cc1 (mixture of isomers) [compound 224]
Ratio rel. GdA (HepG2) (Hsp90 in HEPG2 lysate; EC50 / EC50 of GdA in HepG2 lysate): 135.257
Ratio rel. GdA (HepG2) (Hsp90 in HEPG2 lysate; EC50 relative to GdA, HEPG2 lysate): 135.257
FP signal, Fxn Control (Hsp90 in HEPG2 lysate; HEPG2 lysate, log concentration 0.137354 (1.372 nM)): 1.005
FP signal, Fxn Control (Hsp90 in HEPG2 lysate; HEPG2 lysate, log concentration 0.61437 (4.115 nM)): 0.9952
FP signal, Fxn Control (Hsp90 in HEPG2 lysate; HEPG2 lysate, log concentration 1.09153 (12.346 nM)): 1.01
FP signal, Fxn Control (Hsp90 in HEPG2 lysate; HEPG2 lysate, log concentration 1.56864 (37.037 nM)): 1.014
FP signal, Fxn Control (Hsp90 in HEPG2 lysate; HEPG2 lysate, log concentration 2.04576 (111.111 nM)): 1.005
FP signal, Fxn Control (Hsp90 in HEPG2 lysate; HEPG2 lysate, log concentration 2.52288 (333.333 nM)): 0.9952
FP signal, Fxn Control (Hsp90 in HEPG2 lysate; HEPG2 lysate, log concentration 3 (1000 nM)): 0.8702
FP signal, Fxn Control (Hsp90 in HEPG2 lysate; HEPG2 lysate, log concentration 3.47712 (3000 nM)): 0.5048
FP signal, Fxn Control (Hsp90 in HEPG2 lysate; HEPG2 lysate, log concentration -0.340084 (0.457 nM)): 0.9904
FP signal (raw) (Hsp90 in HEPG2 lysate; 0.457 nM): 206
FP signal (Hsp90 in HEPG2 lysate; 0.457 nM compound): 206
FP signal (raw) (Hsp90 in HEPG2 lysate; 1.372 nM): 209
FP signal (Hsp90 in HEPG2 lysate; 1.372 nM compound): 209
FP signal (raw) (Hsp90 in HEPG2 lysate; 4.115 nM): 207
FP signal (Hsp90 in HEPG2 lysate; 4.115 nM compound): 207
FP signal (raw) (Hsp90 in HEPG2 lysate; 12.346 nM): 210
FP signal (Hsp90 in HEPG2 lysate; 12.346 nM compound): 210
FP signal (raw) (Hsp90 in HEPG2 lysate; 37.037 nM): 211
FP signal (Hsp90 in HEPG2 lysate; 37.037 nM compound): 211
FP signal (raw) (Hsp90 in HEPG2 lysate; 111.111 nM): 209
FP signal (Hsp90 in HEPG2 lysate; 111.111 nM compound): 209
FP signal (raw) (Hsp90 in HEPG2 lysate; 333.333 nM): 207
FP signal (Hsp90 in HEPG2 lysate; 333.333 nM compound): 207
FP signal (raw) (Hsp90 in HEPG2 lysate; 1000 nM): 181
FP signal (Hsp90 in HEPG2 lysate; 1000 nM compound): 181
FP signal (raw) (Hsp90 in HEPG2 lysate; 3000 nM): 105
FP signal (Hsp90 in HEPG2 lysate; 3000 nM compound): 105

Compound: CC1(C)CC(=O)c2c(C(F)(F)F)nn(-c3ccc(C(N)=O)c(N[C@H]4CC[C@H](O)CC4)c3)c2C1 [SNX]
EC50 (Hsp90 in HEPG2 lysate; read-out: FP EC50, rounded summary): 40.1 nM

Compound: CCNC(=O)c1noc(-c2cc(C(C)C)c(O)cc2O)c1-c1ccc(CN2CCOCC2)cc1 [AUY9222]
EC50 (Hsp90 in HEPG2 lysate; refit block, unit inferred): 6.26 nM
